{"source": "ChEMBL document CHEMBL1157159", "about": "“Ester derivatives of gallic acid with potential toxicity toward L1210 leukemia cells” (Bioorg Med Chem, 2008)", "key": {"L1210 [1]": {"tested_on": "L1210", "test": "Cytotoxicity against mouse L1210 cells after 48 hrs by MTT assay", "format": "functional, cell-based", "details": "L1210, 48 h"}, "CCRF-CEM [2]": {"tested_on": "CCRF-CEM", "test": "Induction of apoptosis in human CEM cells assessed as internucleosomal breakdown of DNA chromatin at 100 uM", "format": "functional, cell-based"}, "L1210 [3]": {"tested_on": "L1210", "test": "Cytotoxicity against mouse L1210 cells after 72 hrs by MTT assay", "format": "functional, cell-based", "details": "L1210, 72 h"}, "CCRF-CEM [4]": {"tested_on": "CCRF-CEM", "test": "Cytotoxicity against human CEM cells after 72 hrs by MTT assay", "format": "functional, cell-based"}, "L1210 [5]": {"tested_on": "L1210", "test": "Decrease in mitochondrial glutathione level in mouse L1210 cells", "format": "functional, cell-based"}, "L1210 [6]": {"tested_on": "L1210", "test": "Induction of apoptosis in mouse L1210 cells assessed as internucleosomal breakdown of DNA chromatin at 100 uM", "format": "functional, cell-based"}, "L1210 [7]": {"tested_on": "L1210", "test": "Decrease in cytoplasmic glutathione level in mouse L1210 cells at 100 uM", "format": "functional", "parameters": "scale not given: the % may be the effect or the level left"}, "CCRF-CEM [8]": {"tested_on": "CCRF-CEM", "test": "Induction of apoptosis in human CEM cells assessed as internucleosomal breakdown of DNA chromatin at 30 uM", "format": "functional, cell-based"}, "L1210 [9]": {"tested_on": "L1210", "test": "Induction of apoptosis in mouse L1210 cells assessed as internucleosomal breakdown of DNA chromatin at 30 uM", "format": "functional, cell-based"}, "Vero": {"tested_on": "Vero", "test": "Cytotoxicity against african green monkey VERO cells", "format": "cell-based", "details": "Chlorocebus sabaeus"}, "CCRF-CEM [10]": {"tested_on": "CCRF-CEM", "test": "Cytotoxicity against human CEM cells after 24 hrs by MTT assay", "format": "functional, cell-based"}, "[11]": {"test": "Genotoxicity against african green monkey VERO cells", "format": "toxicity, cell-based", "details": "African green monkey (Chlorocebus sabaeus)"}, "L1210 [12]": {"tested_on": "L1210", "test": "Decrease in cytoplasmic glutathione level in mouse L1210 cells", "format": "functional, cell-based"}}, "note": "Active and inactive are the calls of the source. The rule behind the calls is not given here."}
{"compound": "O=C(O)c1cc(O)c(O)c(O)c1", "note": "[GALLIC ACID]", "values": [{"measurement": "IC50", "setting": "L1210 [1]", "result": "> 50", "unit": "µM"}, {"measurement": "Activity", "setting": "CCRF-CEM [2]", "result": "Active"}, {"measurement": "IC50", "setting": "L1210 [3]", "result": 50, "unit": "µM"}, {"measurement": "IC50", "setting": "CCRF-CEM [4]", "result": "> 50", "unit": "µM"}, {"measurement": "Activity", "setting": "L1210 [5]", "result": "Active"}, {"measurement": "Activity", "setting": "L1210 [6]", "result": "Active"}, {"measurement": "Activity", "setting": "L1210 [7]", "result": 75, "unit": "%"}, {"measurement": "Activity", "setting": "CCRF-CEM [8]", "result": "Active"}, {"measurement": "Activity", "setting": "L1210 [9]", "result": "Active"}, {"measurement": "IC50", "setting": "Vero", "result": "> 1", "unit": "µM"}, {"measurement": "IC50", "setting": "CCRF-CEM [10]", "result": "> 50", "unit": "µM"}, {"measurement": "IC50", "setting": "[11]", "result": "> 299", "unit": "µM"}, {"measurement": "Activity", "setting": "L1210 [12]", "result": "Active"}]}
